Measured values from the Bradley open melting point set (2014).
“And” between values parts separate entries of the source, which are not always exact repeats. Equal values may be shown once.

Compound	melting point
CNCC(O)c1ccccc1 (stereo not given) [2-(Methylamino)-1-phenylethanol]	75 °C
CCn1c2ccccc2c2ccccc21 [9-ethylcarbazole]	69 °C
c1ccc2c(c1)CCCC2 [1,2,3,4-tetrahydronaphthalene(tetralin)]	-35 °C
N#CCOc1ccccc1Br [2-bromophenoxyacetonitrile]	49 °C
O=C(c1ccco1)C(O)c1ccco1 (stereo not given) [2,2'-furoin]	138 °C
CNC(=O)Oc1cccc2ccccc12 [carbaryl]	142 °C
CCCCCC(C)=O [2-heptanone]	-35 °C
C1=CC2C(C1)[C@@H]1C=C[C@H]2C1 (stereo not given in full) [Dicyclopentadiene]	32.5 °C
IC(I)I [iodoform]	122 °C
CCCCCCCCCCCC [Dodecane]	-9.6 °C
CS(N)(=O)=O [methanesulfonamide]	90 °C
CCCNCCC [N-Propylpropan-1-amine]	-40 °C
c1ccc2c(c1)ccc1ccccc12 [phenanthrene]	99.2 °C and 101 °C and 99 °C
Cc1noc(C)c1B(O)O [3,5-dimethylisoxazole-4-boronic acid]	107 °C
Nc1nc(N)c2nc(-c3ccccc3)c(N)nc2n1 [Triamterene]	306 °C
Nc1ccc(C(=O)O)cc1 [4-Aminobenzoic Acid]	188 °C
Ic1ccccc1 [iodobenzene]	-31 °C
COc1ccc(C(=O)C=C(C)c2ccc(OC)cc2)cc1 [trans-4,4'-Dimethoxy-beta-methylchalcone]	87 °C
CC(=O)NS(=O)(=O)c1ccc(N)cc1 [Sulfacetamide]	182 °C
O=[N+]([O-])c1cc[n+]([O-])cc1Br [3-bromo-4-nitropyridine n-oxide]	153 °C
CC(C)(C)c1ccc(C2CCC3(CC2)Cc2ccc(O)cc2C3)cc1 (stereo not given)	131 °C
COc1ccc(C=CC(=O)c2ccccc2)c(OC)c1 [2,4-Dimethoxychalcone]	70 °C
NC(CO)Cc1ccccc1 (single isomer, unassigned; (-)) [(-)-2-amino-3-phenyl-1-propanol]	92 °C
C(=C/P(=O)(O)O)P(=O)(O)O [1,2-ethylenediphosphonic acid]	219 °C
COC(=O)c1ccc(C#N)cc1 [methyl 4-cyanobenzoate]	67 °C

Compound	melting point
O=C(N[C@@H](Cc1ccccc1)C(=O)O)OCc1ccccc1 [N-benzyloxycarbonyl-l-phenylalanine]	86 °C
CCOc1cccc(B(O)O)c1 [3-ethoxybenzeneboronic acid]	144 °C
Cn1cnc2c1c(=O)[nH]c(=O)n2C [theobromine]	348 °C
COc1ccccc1Br [2-bromoanisole]	3 °C
Cc1ccc[n+]([O-])c1 [3-picoline n-oxide]	38 °C
CC12CCC(/C(=C/Nc3ccccc3)C1=O)C2(C)C (stereo not given)	166 °C
CC(C)NCC1CCc2cc(CO)c([N+](=O)[O-])cc2N1 (stereo not given) [oxamniquine]	148 °C
O=C(O)/C=C/C(=O)O [Fumaric Acid]	287 °C
CCOC(=O)/C=C\C(=O)OCC [Diethyl (2Z)-but-2-enedioate]	-10 °C
CS [Methanethiol]	-121 °C
O=C(O)c1cc(/N=N/c2ccc(S(=O)(=O)Nc3ccccn3)cc2)ccc1O [Sulfasalazine]	220 °C
N#Cc1ccc(C#N)cc1 [Terephthalonitrile]	226 °C
CC(C)(c1ccccc1)c1ccc(O)cc1 [4-(2-Phenylpropan-2-yl)phenol]	71.5 °C
O=C(c1ccccc1)c1ccc(C(F)(F)F)cc1 [4-(trifluoromethyl)benzophenone]	118 °C
CC(C)C1=C(O)C(=O)C2=C(CCC3C(C)(C)CCCC23C)C1=O (stereo not drawn) [7alpha-12-Hydroxy-8,12-abietadiene-11,14-dione]	181 °C
Cn1nc(CC#N)c2c(N)ncnc21	137 °C
O=C(N[C@@H](Cc1c[nH]c2ccccc12)C(=O)O)OCc1ccccc1 [N(alpha)-benzyloxycarbonyl-l-tryptophan]	124 °C
CCN(CC)CC [triethylamine]	-115 °C
CCCCCCCCCCC(C)=O [2-dodecanone]	21 °C
OCCC12CC3CC(CC(C3)C1)C2 [1-adamantaneethanol]	74 °C
c1ccc(C(c2ccccc2)c2ccccc2)cc1 [triphenylmethane]	94 °C
O=C(/C=C/c1ccccc1)c1ccccc1 [trans-chalcone]	56 °C
CC(=O)OCCCCOC(C)=O [1,4-diacetoxybutane]	13 °C
C1CCC(NC2CCCCC2)CC1 [dicyclohexylamine]	-2 °C
Cc1cc2nsnc2cc1C [5,6-dimethyl-2,1,3-benzothiadiazole]	84 °C
